Reference: patent US20180280372A1, “COMPOSITIONS AND METHODS FOR INHIBITING AUTOPHAGY AND CONTRACEPTION” (Washington University, priority 2016, published 2018)
pEC50, pIC50, pKi: −log10 of the molar value. Entries after “also recorded” stand apart in the source; their conditions may differ. Counter-ions that a name gives are not always drawn.

How the values were obtained:
CDK1 = CDK1 (Homo sapiens, UniProt P06493); conditions: cited from earlier work
autophagy = experiment: C. elegans-based high-throughput screen for autophagic inhibitors; format: in vivo; conditions: LOPAC1280 library, validated hits
Protocol: A C. elegans-based high-throughput screen was performed to identify novel autophagic inhibitors using the LOPAC^1280 library of 1280 pharmacologically active compounds from Sigma. Using this high-content screen, 27 initial hits were identified.

HDAC = conditions: cited from earlier work
[1] = aqueous solutions or plasma / solution; cited from earlier work
Bcl-2 = Bcl-2 (Homo sapiens, UniProt P10415); conditions: cited from earlier work
Bcl-2, sequence (P10415 whole entry, species assumed): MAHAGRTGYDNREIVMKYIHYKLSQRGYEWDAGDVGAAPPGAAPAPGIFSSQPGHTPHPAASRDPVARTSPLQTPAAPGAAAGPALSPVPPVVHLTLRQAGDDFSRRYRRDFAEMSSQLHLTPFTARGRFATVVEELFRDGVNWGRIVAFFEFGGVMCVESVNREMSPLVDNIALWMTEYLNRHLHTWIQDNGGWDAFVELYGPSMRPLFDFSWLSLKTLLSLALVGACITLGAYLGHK

[2] = target: deubiquitinylating enzymes (DUBs); conditions: cited from earlier work
mTOR = mTOR (Homo sapiens, UniProt P42345); conditions: cited from earlier work
Aurora C = target: T1, Aurora C (Homo sapiens, UniProt Q9UQB9); conditions: cited from earlier work
T1 sequence (Q9UQB9 1-309): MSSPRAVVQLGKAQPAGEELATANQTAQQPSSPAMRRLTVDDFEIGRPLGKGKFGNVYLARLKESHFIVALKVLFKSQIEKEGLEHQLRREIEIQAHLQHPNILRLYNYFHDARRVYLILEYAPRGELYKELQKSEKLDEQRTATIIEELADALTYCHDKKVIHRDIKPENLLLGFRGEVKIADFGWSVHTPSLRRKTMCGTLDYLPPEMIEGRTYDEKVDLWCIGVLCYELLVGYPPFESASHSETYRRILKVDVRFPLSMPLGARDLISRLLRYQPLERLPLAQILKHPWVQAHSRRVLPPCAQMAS

SIRT1 = SIRT1 (Homo sapiens, UniProt Q96EB6); conditions: SIRT1 vs SIRT2 and SIRT3; cited from earlier work
SIRT1, sequence (Q96EB6 whole entry, species assumed): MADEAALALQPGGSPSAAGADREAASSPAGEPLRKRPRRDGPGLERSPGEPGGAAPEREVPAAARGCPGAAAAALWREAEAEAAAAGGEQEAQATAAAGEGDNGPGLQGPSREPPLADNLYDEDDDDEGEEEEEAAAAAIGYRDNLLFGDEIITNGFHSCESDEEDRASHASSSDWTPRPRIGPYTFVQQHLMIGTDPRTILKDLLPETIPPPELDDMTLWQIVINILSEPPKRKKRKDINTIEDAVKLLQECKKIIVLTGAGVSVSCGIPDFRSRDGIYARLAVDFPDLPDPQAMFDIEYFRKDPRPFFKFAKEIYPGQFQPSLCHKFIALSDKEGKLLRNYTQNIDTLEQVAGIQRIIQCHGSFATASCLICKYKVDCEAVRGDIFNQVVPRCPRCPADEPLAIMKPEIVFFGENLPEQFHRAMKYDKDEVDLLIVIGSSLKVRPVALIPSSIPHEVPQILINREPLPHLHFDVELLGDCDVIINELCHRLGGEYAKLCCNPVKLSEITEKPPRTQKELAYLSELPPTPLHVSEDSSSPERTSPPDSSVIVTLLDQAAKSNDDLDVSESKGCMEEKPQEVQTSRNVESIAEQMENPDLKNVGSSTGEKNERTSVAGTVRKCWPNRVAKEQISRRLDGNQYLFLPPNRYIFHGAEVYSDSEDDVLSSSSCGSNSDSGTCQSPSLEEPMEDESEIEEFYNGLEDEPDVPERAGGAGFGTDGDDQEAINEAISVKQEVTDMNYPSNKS

primary hESC cells = experiment: Decidualization of primary hESC cells; format: cell-based, human
hESC-t cells = experiment: Decidualization of immortalized human ESCs (hESC-t); format: cell-based
ATM = ATM (Homo sapiens, UniProt Q13315); conditions: cited from earlier work
PI3K = conditions: cited from earlier work
Aurora B = Aurora B (Homo sapiens, UniProt Q96GD4); conditions: cited from earlier work
Aurora B, sequence (Q96GD4 whole entry): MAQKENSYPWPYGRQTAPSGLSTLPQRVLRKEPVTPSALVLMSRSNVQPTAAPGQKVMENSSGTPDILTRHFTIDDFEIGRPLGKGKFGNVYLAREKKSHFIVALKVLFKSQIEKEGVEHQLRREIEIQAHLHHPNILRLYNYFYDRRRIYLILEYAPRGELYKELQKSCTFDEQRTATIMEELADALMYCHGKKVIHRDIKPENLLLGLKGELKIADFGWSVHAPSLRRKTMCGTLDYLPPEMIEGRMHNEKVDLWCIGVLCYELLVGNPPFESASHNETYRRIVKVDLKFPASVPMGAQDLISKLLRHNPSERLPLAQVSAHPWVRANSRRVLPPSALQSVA

calcium channel = conditions: cited from earlier work
Aurora A = Aurora A (Homo sapiens, UniProt O14965); conditions: cited from earlier work
Aurora A, sequence (O14965 whole entry): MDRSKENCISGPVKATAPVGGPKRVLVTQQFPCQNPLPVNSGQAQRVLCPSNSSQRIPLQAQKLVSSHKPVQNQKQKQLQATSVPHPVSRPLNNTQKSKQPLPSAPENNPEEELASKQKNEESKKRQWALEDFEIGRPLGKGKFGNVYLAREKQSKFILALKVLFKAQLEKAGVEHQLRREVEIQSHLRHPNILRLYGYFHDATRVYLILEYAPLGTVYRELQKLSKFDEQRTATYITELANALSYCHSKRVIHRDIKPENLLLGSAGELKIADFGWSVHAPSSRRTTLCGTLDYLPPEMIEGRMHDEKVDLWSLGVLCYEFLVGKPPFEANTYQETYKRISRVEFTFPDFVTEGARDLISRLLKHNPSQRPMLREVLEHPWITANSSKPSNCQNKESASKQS

parasite growth = conditions: cited from earlier work
[3] = tested on: TNFα-induced IκBα phosphorylation; conditions: cited from earlier work
p110α (PI3Kα) = p110α (PI3Kα) (Homo sapiens, UniProt P42336); conditions: cited from earlier work
p110α (PI3Kα), sequence (P42336 whole entry, species assumed): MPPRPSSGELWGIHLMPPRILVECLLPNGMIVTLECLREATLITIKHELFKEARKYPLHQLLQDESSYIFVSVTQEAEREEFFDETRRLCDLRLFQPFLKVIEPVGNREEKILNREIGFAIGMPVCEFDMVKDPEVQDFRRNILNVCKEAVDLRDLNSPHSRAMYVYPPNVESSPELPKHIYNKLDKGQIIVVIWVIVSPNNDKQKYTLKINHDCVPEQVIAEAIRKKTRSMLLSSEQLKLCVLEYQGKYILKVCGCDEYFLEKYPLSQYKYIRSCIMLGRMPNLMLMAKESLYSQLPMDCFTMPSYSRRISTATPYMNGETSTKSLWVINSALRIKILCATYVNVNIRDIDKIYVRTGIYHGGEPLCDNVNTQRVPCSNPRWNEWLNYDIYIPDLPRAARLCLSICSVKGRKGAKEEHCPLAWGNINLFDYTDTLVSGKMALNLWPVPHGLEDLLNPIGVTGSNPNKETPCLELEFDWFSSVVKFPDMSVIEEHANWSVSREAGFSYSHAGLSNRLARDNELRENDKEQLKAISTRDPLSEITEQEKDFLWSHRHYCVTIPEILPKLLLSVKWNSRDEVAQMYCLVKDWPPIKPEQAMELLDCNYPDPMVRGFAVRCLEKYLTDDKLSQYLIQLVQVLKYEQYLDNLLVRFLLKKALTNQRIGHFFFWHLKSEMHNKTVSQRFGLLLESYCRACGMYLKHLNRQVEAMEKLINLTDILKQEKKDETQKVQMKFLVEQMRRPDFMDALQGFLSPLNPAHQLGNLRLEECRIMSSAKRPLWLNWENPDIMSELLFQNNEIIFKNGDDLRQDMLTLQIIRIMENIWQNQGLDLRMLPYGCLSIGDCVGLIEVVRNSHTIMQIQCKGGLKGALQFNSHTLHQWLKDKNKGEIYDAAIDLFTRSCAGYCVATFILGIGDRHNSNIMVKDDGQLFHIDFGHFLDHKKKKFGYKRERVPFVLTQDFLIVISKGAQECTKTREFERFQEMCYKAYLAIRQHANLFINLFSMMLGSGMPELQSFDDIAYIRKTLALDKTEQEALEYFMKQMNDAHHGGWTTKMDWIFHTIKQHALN
p110α (PI3Kα), sequence (P27986 whole entry partner, species assumed): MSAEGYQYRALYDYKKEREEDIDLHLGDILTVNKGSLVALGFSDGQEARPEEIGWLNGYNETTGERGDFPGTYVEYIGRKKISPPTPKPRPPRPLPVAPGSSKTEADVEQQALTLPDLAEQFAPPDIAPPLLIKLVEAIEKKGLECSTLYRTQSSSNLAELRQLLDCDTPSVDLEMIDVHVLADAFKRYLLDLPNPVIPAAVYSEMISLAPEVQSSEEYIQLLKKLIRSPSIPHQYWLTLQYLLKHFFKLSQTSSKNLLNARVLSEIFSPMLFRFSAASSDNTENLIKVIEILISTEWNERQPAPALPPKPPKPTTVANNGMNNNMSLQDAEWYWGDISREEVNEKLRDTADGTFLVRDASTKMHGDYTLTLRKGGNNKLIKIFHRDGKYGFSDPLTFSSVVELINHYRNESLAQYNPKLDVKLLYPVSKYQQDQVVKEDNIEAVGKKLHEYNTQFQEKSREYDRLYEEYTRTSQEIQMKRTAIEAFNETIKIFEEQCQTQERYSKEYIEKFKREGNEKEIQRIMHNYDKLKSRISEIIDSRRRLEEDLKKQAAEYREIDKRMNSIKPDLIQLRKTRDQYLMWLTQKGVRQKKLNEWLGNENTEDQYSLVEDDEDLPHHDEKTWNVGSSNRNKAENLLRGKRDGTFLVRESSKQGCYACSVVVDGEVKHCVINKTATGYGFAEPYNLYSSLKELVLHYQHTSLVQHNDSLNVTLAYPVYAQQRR

p110γ (PI3Kγ) = p110γ (PI3Kγ) (Homo sapiens, UniProt P48736); conditions: cited from earlier work
p110γ (PI3Kγ), sequence (P48736 whole entry, species assumed): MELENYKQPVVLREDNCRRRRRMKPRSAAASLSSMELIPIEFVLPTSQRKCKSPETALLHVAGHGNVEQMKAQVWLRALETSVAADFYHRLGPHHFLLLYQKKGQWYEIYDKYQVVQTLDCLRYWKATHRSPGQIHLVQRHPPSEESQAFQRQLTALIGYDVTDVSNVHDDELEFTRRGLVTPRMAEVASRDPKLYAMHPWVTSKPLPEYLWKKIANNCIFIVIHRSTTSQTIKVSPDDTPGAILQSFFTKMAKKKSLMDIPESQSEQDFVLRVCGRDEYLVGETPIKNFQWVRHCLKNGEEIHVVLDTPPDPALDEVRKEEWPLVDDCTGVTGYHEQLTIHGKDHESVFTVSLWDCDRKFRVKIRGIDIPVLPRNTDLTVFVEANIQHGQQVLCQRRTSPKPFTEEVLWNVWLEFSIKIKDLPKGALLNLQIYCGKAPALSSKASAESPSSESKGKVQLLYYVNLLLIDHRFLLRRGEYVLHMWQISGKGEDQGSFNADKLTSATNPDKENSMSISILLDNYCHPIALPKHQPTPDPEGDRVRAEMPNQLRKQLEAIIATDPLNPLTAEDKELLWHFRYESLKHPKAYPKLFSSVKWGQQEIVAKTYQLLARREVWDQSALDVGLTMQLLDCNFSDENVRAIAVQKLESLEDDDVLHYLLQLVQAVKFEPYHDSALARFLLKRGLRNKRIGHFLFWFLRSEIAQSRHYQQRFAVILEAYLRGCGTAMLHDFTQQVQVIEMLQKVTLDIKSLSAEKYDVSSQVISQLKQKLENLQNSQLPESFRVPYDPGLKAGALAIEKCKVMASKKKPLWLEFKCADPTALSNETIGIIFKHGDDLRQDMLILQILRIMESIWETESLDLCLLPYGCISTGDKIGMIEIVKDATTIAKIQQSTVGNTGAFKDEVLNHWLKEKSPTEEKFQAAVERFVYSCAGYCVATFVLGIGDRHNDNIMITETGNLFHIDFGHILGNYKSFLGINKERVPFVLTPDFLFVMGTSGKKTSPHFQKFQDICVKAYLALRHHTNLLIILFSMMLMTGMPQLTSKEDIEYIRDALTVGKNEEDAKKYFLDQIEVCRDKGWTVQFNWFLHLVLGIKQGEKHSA

p110β (PI3Kβ) = p110β (PI3Kβ) (Homo sapiens, UniProt P42338); conditions: cited from earlier work
20S proteasome = conditions: cited from earlier work
HCT 116 cells = conditions: cited from earlier work
cAMP production = conditions: cited from earlier work
HDAC10 = HDAC10 (Homo sapiens, UniProt Q969S8); conditions: cited from earlier work
HDAC2 = conditions: cited from earlier work
sodium channel = conditions: rat brain synaptosomes; cited from earlier work
proteasome = conditions: cited from earlier work
α2 adrenergic = conditions: in vivo; cited from earlier work

Q: With `Nc1nc(Nc2ccc(S(N)(=O)=O)cc2)nn1C(=O)c1c(F)cccc1F` [JNJ-7706621] as the compound, how does the pIC50 (CDK1) read?
A: Its pIC50 is 8.05.

Q: With `Cl.OC1CCCCC1N1CCC(c2ccccc2)CC1` (stereo not drawn) [L(−)-vesamicol hydrochloride] as the compound, how does the “identified as autophagy inhibitor in C. elegans screen” value (“identified as autophagy inhibitor” below) (autophagy) read?
A: The value was “novel autophagy inhibitors”.

Q: With `O=C(/C=C/c1ccc(CN(CCO)CCc2c[nH]c3ccccc23)cc1)NO` [LAQ824] as the compound, how does the pIC50 (HDAC) read?
A: The pIC50 was 7.49.

Q: Which stability in solution [1] does the source give for `O=c1cc(N2CCOCC2)oc2c(-c3ccccc3)cccc12` [LY294002] here?
A: The stability in solution was “more stable in solution than Wortmannin”.

Q: With `COC1=CC(c2cc3ccccc3[nH]2)=N/C1=C\c1[nH]c(C)cc1C` [Obatoclax Mesylate] as the compound, how does the pKi (Bcl-2) read?
A: The pKi was 6.66.

Q: With `N#CSc1cc(SC#N)c(N)nc1N` [PR-619] as the compound, how does the pEC50 [2] read?
A: Its pEC50 is 4.70 to 6.00.

Q: With `CO[C@H]1C[C@@H]2CC[C@@H](C)[C@@](O)(O2)C(=O)C(=O)N2CCCC[C@H]2C(=O)O[C@H]([C@H](C)C[C@@H]2CC[C@@H](OP(C)(C)=O)[C@H](OC)C2)CC(=O)[C@H](C)/C=C(\C)[C@@H](O)[C@@H](OC)C(=O)[C@H](C)C[C@H](C)/C=C/C=C/C=C/1C` [Ridaforolimus] as the compound, how does the pIC50 (mTOR) read?
A: The pIC50 was 9.70.

Q: With `O=C(Nc1cccc(Cl)c1)Nc1ncc(CCNc2ncnc3ccsc23)s1` [SNS-314 Mesylate] as the compound, how does the pIC50 (Aurora C) read?
A: The pIC50 was 8.52.

Q: For `Cl.O=C(Nc1ccccc1-c1cn2c(CN3CCNCC3)csc2n1)c1cnc2ccccc2n1` [SRT1720], which “less potent for SIRT2 and SIRT3” value (SIRT1) is on record?
A: Its value is over 230 fold.

Q: With `CC(/C=C/C(=O)NO)=C\[C@@H](C)C(=O)c1ccc(N(C)C)cc1` [Trichostatin A] as the compound, how does the pIC50 (HDAC) read?
A: The pIC50 was about 8.74.

Q: Which “decidualization of primary hESC cells” value (primary hESC cells) does the source give for `CNC(=O)c1ccccc1Oc1nc(Nc2cc(OC)c(OC)c(OC)c2)ncc1Br` [Ulk inhibitor] here?
A: Its value is “inhibit decidualization”.

Q: And the “decidualization of immortalized human ESCs (hESC-t)” value (hESC-t cells)?
A: Its value is “inhibit decidualization”.

Q: With `CCCC(CCC)C(=O)O` [Valproic acid sodium salt] as the compound, how does the pIC50 (HDAC) read?
A: Its pIC50 is 3.40.

Q: With `COC[C@H]1OC(=O)c2coc3c2[C@@]1(C)C1=C(C3=O)[C@@H]2CCC(=O)[C@@]2(C)C[C@H]1OC(C)=O` [Wortmannin] as the compound, how does the pIC50 (ATM) read?
A: Its pIC50 is 6.82.

Q: For `COc1cc(C(=O)NS(=O)(=O)c2ccccc2C)ccc1Cc1cn(C)c2ccc(NC(=O)OC3CCCC3)cc12` [Zafirlukast], which “decidualization of primary hESC cells” value (primary hESC cells) is on record?
A: Its value is “inhibit decidualization; also recorded: decidualization is impaired”.

Q: What about the “decidualization of immortalized human ESCs (hESC-t)” value (hESC-t cells) of the same compound?
A: The value was “inhibit decidualization; also recorded: decidualization is impaired”.

Q: And the “identified as autophagy inhibitor” value (autophagy)?
A: The value was “novel autophagy inhibitors”.

Q: With `O=C(Nc1ccc([N+](=O)[O-])cc1Cl)c1cc(Cl)ccc1O` [niclosamide] as the compound, how does the “identified as autophagy inhibitor” value (autophagy) read?
A: Its value is “novel autophagy inhibitors”.

Q: With AMG-900 as the compound, how does the pIC50 (Aurora B) read?
A: Its pIC50 is 8.40.

Q: And the pIC50 (Aurora C)?
A: The pIC50 was 9.00.

Q: With AR-42 as the compound, how does the pIC50 (HDAC) read?
A: The pIC50 was 7.52.

Q: With Amlodipine as the compound, how does the pIC50 (calcium channel) read?
A: The pIC50 was 8.72.

Q: Which “selective for Aurora A than Aurora B” value (Aurora A; Aurora A vs Aurora B) does the source give for Aurora A Inhibitor I here?
A: Its value is 1000 fold.

Q: What about the pIC50 (Aurora A) of the same compound?
A: Its pIC50 is 8.47.

Q: With Azithromycin as the compound, how does the pIC50 (parasite growth) read?
A: The pIC50 was 5.08.

Q: With BAY 11-7082 as the compound, how does the pIC50 [3] read?
A: Its pIC50 is 5.00.

Q: With BGT226 as the compound, how does the pIC50 (p110α (PI3Kα)) read?
A: The pIC50 was 8.40.

Q: And the pIC50 (p110γ (PI3Kγ))?
A: The pIC50 was 7.42.

Q: And the pIC50 (p110β (PI3Kβ))?
A: Its pIC50 is 7.20.

Q: With Bortezomib as the compound, how does the pKi (20S proteasome) read?
A: Its pKi is 9.22.

Q: With Brefeldin A as the compound, how does the pIC50 (HCT 116 cells) read?
A: Its pIC50 is 6.70.

Q: With Bupivacaine HCl as the compound, how does the pIC50 (cAMP production) read?
A: Its pIC50 is 5.64.

Q: What does the source list for CCT137690?
A: pIC50 (Aurora B): 7.60; pIC50 (Aurora C): 7.72

Q: With CUDC-907 as the compound, how does the pIC50 (HDAC10) read?
A: The pIC50 was 8.55.

Q: What about the pIC50 (HDAC2) of the same compound?
A: The pIC50 was 8.30.

Q: With Carbamazepine as the compound, how does the pIC50 (sodium channel) read?
A: Its pIC50 is 3.88.

Q: With Carfilzomib as the compound, how does the pIC50 (proteasome) read?
A: The pIC50 was over 8.30.

Q: Which “ED50 (α2 adrenergic agonist)” value (α2 adrenergic) does the source give for Clonidine HCl here?
A: The value was “Clonidine hydrochloride(Catapres) is a direct-acting α2 adrenergic agonist with an ED50 of 0.02 ± 0.01 mg/kg”.
